According to patent publication EP0183174A2, “Substituted phenoxy urea, processes for its preparation and herbicide containing it as active ingredient” (KUMIAI CHEMICAL INDUSTRY CO., LTD., priority 1984, dated 1986):

Legend:
[1] = tested on: barnyardgrass (Echinochloa crus-galli L.); assay: Test Example 1: herbicidal test by water treatment in a paddy field; assay type: in vivo; parameters: key: 5: Withered; 4.5: Herbicidal effect (or phytotoxicity) in a range of 90 to 99%; 4: Herbicidal effect (or phytotoxicity) in a range of 80 to 89%; 3.5: Herbicidal effect (or phytotoxicity) in a range of 70 to 79%; 3: Herbicidal effect (or phytotoxicity) in a range of 60 to 69%; 2.5: Herbicidal effect (or phytotoxicity) in a range of 50 to 59%; 2: Herbicidal effect (or phytotoxicity) in a range of 40 to 49%; 1.5: Herbicidal effect (or phytotoxicity) in a range of 30 to 39%; 1: Herbicidal effect (or phytotoxicity) in a range of 20 to 29%; 0.5: Herbicidal effect (or phytotoxicity) in a range of 1 to 19%; 0: No herbicidal effect (or no phytotoxicity); details: evaluated thirty days after application
Method: (§1) Into each porcelain pot having a diameter of 10 cm, paddy soil was filled and puddled, and seeds of barnyardgrass (Echinochloa crus-galli L.), smallflower flatsedge, monochoria and Japanese bulrush were sown, and water was filled in a-depth of 3 cm. One day later, a predetermined amount of the wettable powder prepared in Formulation Example 3 and diluted with water was dropwise applied to the surface of the water (dose of the active ingredient: 4 kg/hectare). Thereafter, they were grown in a green house. Thirty days after the application, the herbicidal effects were evaluated in accordance with the standards as identified in Table 5.

[2] = tested on: smallflower flatsedge; assay: as above; assay type: in vivo, Cvperus diffcrmis L.; parameters: key: 5: Withered; 4.5: Herbicidal effect (or phytotoxicity) in a range of 90 to 99%; 4: Herbicidal effect (or phytotoxicity) in a range of 80 to 89%; 3.5: Herbicidal effect (or phytotoxicity) in a range of 70 to 79%; 3: Herbicidal effect (or phytotoxicity) in a range of 60 to 69%; 2.5: Herbicidal effect (or phytotoxicity) in a range of 50 to 59%; 2: Herbicidal effect (or phytotoxicity) in a range of 40 to 49%; 1.5: Herbicidal effect (or phytotoxicity) in a range of 30 to 39%; 1: Herbicidal effect (or phytotoxicity) in a range of 20 to 29%; 0.5: Herbicidal effect (or phytotoxicity) in a range of 1 to 19%; 0: No herbicidal effect (or no phytotoxicity); details: evaluated thirty days after application
Method: as §1

[3] = tested on: monochoria; assay: as above; assay type: in vivo, Monochoria vaginalis Presl; parameters: key: 5: Withered; 4.5: Herbicidal effect (or phytotoxicity) in a range of 90 to 99%; 4: Herbicidal effect (or phytotoxicity) in a range of 80 to 89%; 3.5: Herbicidal effect (or phytotoxicity) in a range of 70 to 79%; 3: Herbicidal effect (or phytotoxicity) in a range of 60 to 69%; 2.5: Herbicidal effect (or phytotoxicity) in a range of 50 to 59%; 2: Herbicidal effect (or phytotoxicity) in a range of 40 to 49%; 1.5: Herbicidal effect (or phytotoxicity) in a range of 30 to 39%; 1: Herbicidal effect (or phytotoxicity) in a range of 20 to 29%; 0.5: Herbicidal effect (or phytotoxicity) in a range of 1 to 19%; 0: No herbicidal effect (or no phytotoxicity); details: evaluated thirty days after application
Method: as §1

[4] = tested on: Japanese bulrush; assay: as above; assay type: in vivo, Scir^pus juncoides Roxb.; parameters: key: 5: Withered; 4.5: Herbicidal effect (or phytotoxicity) in a range of 90 to 99%; 4: Herbicidal effect (or phytotoxicity) in a range of 80 to 89%; 3.5: Herbicidal effect (or phytotoxicity) in a range of 70 to 79%; 3: Herbicidal effect (or phytotoxicity) in a range of 60 to 69%; 2.5: Herbicidal effect (or phytotoxicity) in a range of 50 to 59%; 2: Herbicidal effect (or phytotoxicity) in a range of 40 to 49%; 1.5: Herbicidal effect (or phytotoxicity) in a range of 30 to 39%; 1: Herbicidal effect (or phytotoxicity) in a range of 20 to 29%; 0.5: Herbicidal effect (or phytotoxicity) in a range of 1 to 19%; 0: No herbicidal effect (or no phytotoxicity); details: evaluated thirty days after application
Method: as §1

[5] = tested on: barnyardgrass; assay: Test Example 2: herbicidal test for selectivity between rice and barnyardgrass (herbicidal effects); assay type: in vivo, Echinochloa crus-galli L.; details: barnyardgrass of 2-leaf stage, thirty days after application
Method: (§2) Into each 1/5000 are Wager pot, paddy soil was filled and puddled, then seeds of barnyardgrass were sown and grown until they reached 2-leaf stage. The barnyardgrass of 2-leaf stage was thinned out to adjust the number of barnyardgrass to fifteen per pot, and rice seedlings of 2-leaf stage were transplanted in the same pot. […] Thereafter, they were grown in a green house, and thirty days after the application, the herbicidal effects and phytotoxicity were evaluated in accordance with the standards as identified in Table 5.

[6] = tested on: Paddy rice; assay: Test Example 2: herbicidal test for selectivity between rice and barnyardgrass (phytotoxicity); assay type: in vivo; details: thirty days after application
Method: as §2

[7] = Herbicidal activity of the prior-art compound, used in the same manner as the compound of the invention (general statement); assay type: in vivo; details: used in the same manner as the compound of the present invention
[8] = water treatment in paddy field pot, dose of active ingredient 4 kg/hectare
[9] = dose of the active ingredient 4 kg/hectare, wettable powder applied to water surface one day after sowing

**Q.** Which results are given for “3-(2,5-Dichlorophenoxy)-1,1-dimethyl urea trichloroacetate [Compound No. 185]”?
**A.** Herbicidal effects Barnyard grass [1, 8]: 5; Herbicidal effects Small flower flatsedge [2, 8]: 5; Herbicidal effects Monochoria [3, 8]: 5; Herbicidal effects Japanese bulrush [4, 8]: 5

**Q.** Which “Herbicidal effects Barnyard grass” value [1, 8] does the source give for “3-(3,5-Dichlorophenoxy)-1,1-dimethyl urea trichloroacetate [Compound No. 184]” here?
**A.** The value was 5.

**Q.** What about the “Herbicidal effects Small flower flatsedge” value [2, 8] of the same molecule?
**A.** Its value is 5.

**Q.** What about the “Herbicidal effects Monochoria” value [3, 8] of the same molecule?
**A.** Its value is 5.

**Q.** What about the “Herbicidal effects Japanese bulrush” value [4, 8] of the same molecule?
**A.** The value was 5.

**Q.** For NC(=O)NOc1cccc(Cl)c1 [Comparative Compound], which “Herbicidal effects Barnyard grass” value [1, 8] is on record?
**A.** Its value is 0.

**Q.** And the “Herbicidal effects Small flower flatsedge” value [2, 8]?
**A.** Its value is 0.

**Q.** And the “Herbicidal effects Monochoria” value [3, 8]?
**A.** The value was 0.

**Q.** And the “Herbicidal effects Japanese bulrush” value [4, 8]?
**A.** The value was 0.

**Q.** Which “Herbicidal effects Barnyard grass” value [1, 9] does the source give for C=CCNC(=O)NOc1cc(Cl)ccc1Cl [Compound No. 2, 1-Allyl-3-(2,5-dichlorophenoxy) urea] here?
**A.** The value was 5.

**Q.** What about the “Herbicidal effects Small flower flatsedge” value [2, 9] of the same molecule?
**A.** The value was 5.

**Q.** And the “Herbicidal effects Monochoria” value [3, 9]?
**A.** The value was 5.

**Q.** What about the “Herbicidal effects Japanese bulrush” value [4, 9] of the same molecule?
**A.** The value was 5.

**Q.** What about the “Herbicidal effects Barnyard grass” value ([5]; Dose 0.5 kg/Ha) of the same molecule?
**A.** The value was 5.

**Q.** And the “Herbicidal effects Barnyard grass” value ([5]; Dose 1 kg/Ha)?
**A.** The value was 5.

**Q.** And the “Phytotoxicity Paddy rice” value ([6]; Dose 0.5 kg/Ha, transplanted rice seedlings of 2-leaf stage)?
**A.** The value was 0.

**Q.** And the “Phytotoxicity Paddy rice” value ([6]; Dose 1 kg/Ha, transplanted rice seedlings of 2-leaf stage)?
**A.** Its value is 1 (Herbicidal effect (or phytotoxicity) in a range of 20 to 29%).

**Q.** Which results are given for O=C(NOc1cccc(Cl)c1Cl)NC1CCCCC1 [Compound No. 3, 1-Cyclohexyl-3-(2,3-dichlorophenoxy) urea]?
**A.** Herbicidal effects Barnyard grass [1, 9]: 5; Herbicidal effects Small flower flatsedge [2, 9]: 5; Herbicidal effects Monochoria [3, 9]: 5; Herbicidal effects Japanese bulrush [4, 9]: 5

**Q.** For CN(C)C(=O)Nc1ccc(Cl)c(Cl)c1 [DCMU, reference compound], which “Herbicidal effects Barnyard grass” value ([5]; Dose 0.25 kg/Ha, water surface application) is on record?
**A.** The value was 3 (Herbicidal effect (or phytotoxicity) in a range of 60 to 69%).

**Q.** And the “Herbicidal effects Barnyard grass” value ([5]; Dose 0.5 kg/Ha, water surface application)?
**A.** The value was 5.

**Q.** And the “Herbicidal effects Barnyard grass” value ([5]; Dose 1 kg/Ha, water surface application)?
**A.** Its value is 5.

**Q.** And the “Phytotoxicity Paddy rice” value ([6]; Dose 0.25 kg/Ha, rice seedlings of 2-leaf stage transplanted, water surface application)?
**A.** The value was 2 (Herbicidal effect (or phytotoxicity) in a range of 40 to 49%).

**Q.** And the “Phytotoxicity Paddy rice” value ([6]; Dose 0.5 kg/Ha, rice seedlings of 2-leaf stage transplanted, water surface application)?
**A.** Its value is 4 (Herbicidal effect (or phytotoxicity) in a range of 80 to 89%).

**Q.** What about the “Phytotoxicity Paddy rice” value ([6]; Dose 1 kg/Ha, rice seedlings of 2-leaf stage transplanted, water surface application) of the same molecule?
**A.** The value was 5.

**Q.** For NC(=O)NOc1cccc(Cl)c1 [m-chlorophenoxy urea], which herbicidal activites [7] is on record?
**A.** The herbicidal activites was “does not show any herbicidal activites”.
